# What was measured:
# Type in all cases: in vivo
# [1] = tested on: Echinochloa crus-galli (L.) Beauv. var. crusgall (Ec); test: Test for herbicidal effect by upland field soil treatment (Test Example 2), Ec; conditions: 100 g/10 a active ingredient, examined at 21st day
# Procedure, shortened: (§1)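 Echinochloa crus-galli and Setaria viridis were sown in upland field soil and covered, then the soil surface was sprayed with water-diluted wettable powder at 100 g active ingredient per 10 ares (100 liters per 10 ares). Plants were grown in a greenhouse and scored on a standard scale on day 21.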
# [2] = tested on: Setaria viridis (L.) Beauv. (Se); test: Test for herbicidal effect by upland field soil treatment (Test Example 2), Se; conditions: 100 g/10 a active ingredient, examined at 21st day
# Procedure, shortened: as §1
# [3] = tested on: Echinochloa crus-galli (L.) Beauv. var. crusgalli (Ec); test: Test for herbicidal effect by upland foliage treatment (Test Example 3); conditions: 100 g/10 a active ingredient, examined at 14th day
# Procedure, shortened: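 Potted upland-soil Ec seedlings grown 2 weeks in greenhouse, then foliage-sprayed with water-diluted wettable powder at 100 L per 10 ares, giving 100 g active ingredient per 10 ares. Herbicidal effect scored on a graded standard 14 days after treatment.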
# [4] = tested on: Echinochloa oryzicola Vasing. (Eo); test: Test for herbicidal effect by paddy field soil treatment (Test Example 1); conditions: application amount (active ingredient) 100 g/10 a, examined at the 21st day from the treatment, index per Table 40
# Procedure, shortened: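 Eo seeds sown in puddled paddy soil under 3 cm water; next day a water-diluted wettable powder was dropped onto the water surface at 100 g active ingredient per 10 ares. Herbicidal effect scored on a standard scale 21 days after treatment, greenhouse-grown.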
Structure (SMILES),Herbicidal effect to Ec [1],Herbicidal effect to Se [2],Herbicidal effect to Ec [3],Herbicidal effect to Eo [4]
COc1cccc(Cl)c1CS(=O)(=O)C1=NOC(C)(C)C1 [Compound 1-563],5 (A herbicidal effect or phytotoxicity of 90% or more),5 (A herbicidal effect or phytotoxicity of 90% or more),4 (A herbicidal effect or phytotoxicity of 70% to less than 90%),5 (A herbicidal effect or phytotoxicity of 90% or more)
CCOc1cccc(Cl)c1CS(=O)(=O)C1=NOC(C)(C)C1 [Compound 1-564],5 (A herbicidal effect or phytotoxicity of 90% or more),5 (A herbicidal effect or phytotoxicity of 90% or more),4 (A herbicidal effect or phytotoxicity of 70% to less than 90%),5 (A herbicidal effect or phytotoxicity of 90% or more)
CCCOc1cccc(Cl)c1CS(=O)(=O)C1=NOC(C)(C)C1 [Compound 1-565],5 (A herbicidal effect or phytotoxicity of 90% or more),5 (A herbicidal effect or phytotoxicity of 90% or more),4 (A herbicidal effect or phytotoxicity of 70% to less than 90%),5 (A herbicidal effect or phytotoxicity of 90% or more)
CC(C)Oc1cccc(Cl)c1CS(=O)(=O)C1=NOC(C)(C)C1 [Compound 1-566],5 (A herbicidal effect or phytotoxicity of 90% or more),5 (A herbicidal effect or phytotoxicity of 90% or more),4 (A herbicidal effect or phytotoxicity of 70% to less than 90%),5 (A herbicidal effect or phytotoxicity of 90% or more)
CCCCOc1ccccc1CS(=O)(=O)C1=NOC(C)(C)C1 [Compound 1-568],5 (A herbicidal effect or phytotoxicity of 90% or more),5 (A herbicidal effect or phytotoxicity of 90% or more),5 (A herbicidal effect or phytotoxicity of 90% or more),5 (A herbicidal effect or phytotoxicity of 90% or more)
CCCOc1cccc(F)c1CS(=O)(=O)C1=NOC(C)(C)C1 [Compound 1-569],5 (A herbicidal effect or phytotoxicity of 90% or more),5 (A herbicidal effect or phytotoxicity of 90% or more),5 (A herbicidal effect or phytotoxicity of 90% or more),5 (A herbicidal effect or phytotoxicity of 90% or more)
CC(C)Oc1cccc(F)c1CS(=O)(=O)C1=NOC(C)(C)C1 [Compound 1-570],5 (A herbicidal effect or phytotoxicity of 90% or more),5 (A herbicidal effect or phytotoxicity of 90% or more),5 (A herbicidal effect or phytotoxicity of 90% or more),5 (A herbicidal effect or phytotoxicity of 90% or more)
CC(C)COc1cccc(Cl)c1CS(=O)(=O)C1=NOC(C)(C)C1 [Compound 1-572],5 (A herbicidal effect or phytotoxicity of 90% or more),5 (A herbicidal effect or phytotoxicity of 90% or more),4 (A herbicidal effect or phytotoxicity of 70% to less than 90%),5 (A herbicidal effect or phytotoxicity of 90% or more)
C#CCOc1cccc(F)c1CS(=O)(=O)C1=NOC(C)(C)C1 [Compound 1-576],5 (A herbicidal effect or phytotoxicity of 90% or more),5 (A herbicidal effect or phytotoxicity of 90% or more),5 (A herbicidal effect or phytotoxicity of 90% or more),5 (A herbicidal effect or phytotoxicity of 90% or more)
CC(c1ccccc1)S(=O)(=O)C1=NOC(C)(C)C1 (stereo not shown) [Compound 1-581],5 (A herbicidal effect or phytotoxicity of 90% or more),5 (A herbicidal effect or phytotoxicity of 90% or more),4 (A herbicidal effect or phytotoxicity of 70% to less than 90%),5 (A herbicidal effect or phytotoxicity of 90% or more)

# — patent US6841519B1, “Isoxazoline derivatives and herbicides containing the same as the active ingredient” (Kumiai Chemical Industry Co., Ltd., priority 1999, dated 2005)
